Data published in patent US20090169490A1, “COMPOSITION AND METHOD FOR WEIGHT LOSS” (Guangzhou Konzern Pharmaceutical Co., Ltd, priority 2007, published 2009).

Legend:
[1] = cited from earlier work
[2] = cited from earlier work; remark: listed apart in the source
[3] = tested on: Diet-Induced Obesity Rat Model; assay: Weight loss experiments in diet-induced obesity rat model; assay type: in vivo; settings: for difference to control group E (weight loss effect): SPSS12.0 analysis, p<0.01, versus control group E on normal feed; for average weight variation (g) after / average weight variation (g) before: obese male rats; for average weight variation (g) before: n=10 per group
Text: Male weaned rats (each weighs 50 g) divided into 5 groups with each group 10 rats.
The rats are orally administrated L-carnitine tartrate (Group A), L-hydroxy citric acid (Group B), L-carnitine tartrate and L-hydroxy citric acid (Group C), L-carnitine tartrate and L-hydroxy citric acid and asiaticosides (Group D), respectively. For comparison, a control group E is also set herewith. The oral administration dosage is 5 times that for human (kg/day). The rats are fed with feed comprising one of the active components set forth above for continuous 30 days.
Feed preparation: the feed comprises (a) basic feed consisting of 20 wt % of barley meal, 10 wt % of dehydrated vegetables, 20 wt % of pulse flour, 1 wt % of yeast, 5 wt % of bone dust, 16 wt % of cornmeal, 16 wt % of wheat skin, 10 wt % of fish meal and 2 wt % of salt, and (b) nutritive feed selected from the group consisting of powdered milk, lard, egg and soybean sprout. 10 g of powdered milk, 10 g of lard, one egg and 250 g of soybean sprout are added per 100 g of basic feed.
In the first and second week, each rat is fed 13 g of feed per day, with an increase in the amount of the feed of 2 g every week until the sixth week ([…]). The rats are fed twice a day. After the rats are fed with the high-fat, high-nutrition feed above for 45 days, the weight of the rat fed with such feed is nearly two times that of the rat in the control group fed with normal feed (the difference may be more than 100 g).
After the establishment of the rat model, rats in different groups are orally administrated L-carnitine tartrate (Group A), L-hydroxy citric acid (Group B), L-carnitine tartrate and L-hydroxy citric acid (Group C), L-carnitine tartrate and L-hydroxy citric acid and asiaticosides (Group D). The components are blended in the feed. No additional component is added to the normal feed fed the control group.
The experiment data is analyzed by software SPSS12.0 edition, and the result are shown as below: […]

[4] = after minus before, 30 days oral administration in feed, dosage 5 times that for human
[5] = fat pad around testicle and kidney, after 30 days oral administration in feed, dosage 5 times that for human
[6] = fat pad around testicle and kidney, after minus before, 30 days oral administration in feed
[7] = fat pad around testicle and kidney, before the 30 days of oral administration in feed (baseline)
[8] = after 30 days oral administration in feed, dosage 5 times that for human
[9] = before the 30 days of oral administration in feed (baseline)

| Compound | in vivo half-life [1] | solubility in water [2] | difference to control group E (weight loss effect) [3] | average weight variation (g) variation [3, 4] | average percentage body fat variation (g) after [3, 5] | average percentage body fat variation (g) variation [3, 6] | average percentage body fat variation (g) before [3, 7] | average weight variation (g) after [3, 8] | average weight variation (g) before [3, 9] | average fat pad weight [3, 5] | average fat pad weight [3, 6] | average fat pad weight [3, 7] |
| --- | --- | --- | --- | --- | --- | --- | --- | --- | --- | --- | --- | --- |
| C[N+](C)(C)C[C@H](O)CC(=O)[O-] [L-carnitine] | 8.4 h | easy to dissolve in water |  |  |  |  |  |  |  |  |  |  |
| O=C(O)CC(O)(C(=O)O)C(O)C(=O)O [Group B, L-hydroxy citric acid] |  |  | significant | -5.8 g | 3.81 g | -2.4 g | 6.21 g | 97.32 g | 103.12 g |  |  |  |
| C[N+](C)(C)C[C@H](O)CC(=O)[O-].O=C(O)C(O)C(O)C(=O)O [Group A, L-carnitine tartrate] |  |  | significant | -5 g |  |  |  | 98.28 g | 103.28 g | 3.93 g | -2.3 g | 6.23 g |
